Measured values as given in ChEMBL document CHEMBL1201862, “PubChem BioAssay data set” (2004).
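Interpolation was linear, between the two tested concentrations surrounding the appropriate level; five concentrations were tested over 48 hours in 96-well plates. At the GI50, growth is halved.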 Calls of active or inactive are those of the source. Cut-off read from the data, not from the text of the source: active = GI50 up to about 1.1 µM and inactive = higher.

What was measured:
Assay in all cases: DTP human tumour cell line panel, 48 h
A549 = system: A549
ACHN = system: ACHN
CCRF-CEM = system: CCRF-CEM
HL-60 = system: HL-60
HOP-92 = system: HOP-92
MOLT-4 = system: MOLT-4
NCI-H226 = system: NCI-H226
NCI-H460 = system: NCI-H460
NCI-H522 = system: NCI-H522
RPMI-8226 = system: RPMI-8226
SF-268 = system: SF-268
SN12C = system: SN12C
SNB-19 = system: SNB-19
SW-620 = system: SW-620
UACC-257 = system: UACC-257
UACC-62 = system: UACC-62
UO-31 = system: UO-31
NCI/ADR-RES = system: NCI/ADR-RES
BT-549 = system: BT-549
MDA-N = system: MDA-N

## Nc1cccc(C(=O)/C=C/c2ccccc2O)c1
A549
  GI50: > 100 µM (inactive)
ACHN
  GI50: > 100 µM (inactive)
CCRF-CEM
  GI50: 27.5 µM (inactive)
HL-60
  GI50: 20.7 µM (inactive)
HOP-92
  GI50: > 100 µM (inactive)
MOLT-4
  GI50: > 100 µM (inactive)
NCI-H226
  GI50: > 100 µM (inactive)
NCI-H460
  GI50: > 100 µM (inactive)
NCI-H522
  GI50: 59.4 µM (inactive)
RPMI-8226
  GI50: 16.2 µM (inactive)
SF-268
  GI50: > 100 µM (inactive)
SN12C
  GI50: > 100 µM (inactive)
SNB-19
  GI50: > 100 µM (inactive)
SW-620
  GI50: 12.2 µM (inactive)
UACC-257
  GI50: > 100 µM (inactive)
UACC-62
  GI50: > 100 µM (inactive)
UO-31
  GI50: > 100 µM (inactive)

## Cc1ccc(S(=O)(=O)NC(=O)NCc2ccc(S(N)(=O)=O)cc2)cc1
A549
  GI50: > 100 µM (inactive)
ACHN
  GI50: > 100 µM (inactive)
HL-60
  GI50: > 100 µM (inactive)
HOP-92
  GI50: > 100 µM (inactive)
MOLT-4
  GI50: > 100 µM (inactive)
NCI-H226
  GI50: > 100 µM (inactive)
NCI-H460
  GI50: > 100 µM (inactive)
NCI-H522
  GI50: > 100 µM (inactive)
NCI/ADR-RES
  GI50: > 100 µM (inactive)
RPMI-8226
  GI50: > 100 µM (inactive)
SF-268
  GI50: > 100 µM (inactive)
SNB-19
  GI50: > 100 µM (inactive)
SW-620
  GI50: > 100 µM (inactive)
UACC-62
  GI50: > 100 µM (inactive)
UO-31
  GI50: > 100 µM (inactive)

## Nc1ncnc2c1ncn2C1OC(COC2C(CO)OC(OC(C(=O)O)C(O)C(OP(=O)(O)O)C(O)C(=O)O)C(O)C2O)C(O)C1O (stereo unspecified)
A549
  GI50: > 100 µM (inactive)
ACHN
  GI50: 37.7 µM (inactive)
BT-549
  GI50: > 100 µM (inactive)
CCRF-CEM
  GI50: > 100 µM (inactive)
HL-60
  GI50: > 100 µM (inactive)
MOLT-4
  GI50: > 100 µM (inactive)
NCI-H226
  GI50: > 100 µM (inactive)
NCI-H460
  GI50: > 100 µM (inactive)
NCI-H522
  GI50: 59.3 µM (inactive)
RPMI-8226
  GI50: > 100 µM (inactive)
SF-268
  GI50: > 100 µM (inactive)
SNB-19
  GI50: > 100 µM (inactive)
SW-620
  GI50: > 100 µM (inactive)
UACC-257
  GI50: > 100 µM (inactive)

## [O-][S+](c1ccccc1)C1CC2CC3(CCC21O)OCCO3 (stereo unspecified)
A549
  GI50: > 100 µM (inactive)
ACHN
  GI50: > 100 µM (inactive)
CCRF-CEM
  GI50: > 100 µM (inactive)
HL-60
  GI50: > 100 µM (inactive)
HOP-92
  GI50: > 100 µM (inactive)
MDA-N
  GI50: > 100 µM (inactive)
MOLT-4
  GI50: > 100 µM (inactive)
NCI-H226
  GI50: > 100 µM (inactive)
NCI-H460
  GI50: > 100 µM (inactive)
NCI-H522
  GI50: > 100 µM (inactive)
NCI/ADR-RES
  GI50: > 100 µM (inactive)
RPMI-8226
  GI50: > 100 µM (inactive)
SF-268
  GI50: > 100 µM (inactive)
SNB-19
  GI50: > 100 µM (inactive)
SW-620
  GI50: > 100 µM (inactive)
UACC-257
  GI50: > 100 µM (inactive)
UACC-62
  GI50: > 100 µM (inactive)
UO-31
  GI50: > 100 µM (inactive)

## CCOc1cc(/C=N\N(C)C)cc(/C=N\N(C)C)c1O
A549
  GI50: > 100 µM (inactive)
ACHN
  GI50: 21.5 µM (inactive)
CCRF-CEM
  GI50: 44.7 µM (inactive)
HL-60
  GI50: 52.5 µM (inactive)
HOP-92
  GI50: 7.66 µM (inactive)
MDA-N
  GI50: 32.8 µM (inactive)
MOLT-4
  GI50: 61 µM (inactive)
NCI-H226
  GI50: 38.3 µM (inactive)
NCI-H460
  GI50: 30.1 µM (inactive)
NCI/ADR-RES
  GI50: 35.8 µM (inactive)
RPMI-8226
  GI50: 31.6 µM (inactive)
SF-268
  GI50: 19.8 µM (inactive)
SN12C
  GI50: 54 µM (inactive)
SNB-19
  GI50: 48.9 µM (inactive)
SW-620
  GI50: 53.3 µM (inactive)
UACC-257
  GI50: 36 µM (inactive)
UACC-62
  GI50: 69 µM (inactive)
UO-31
  GI50: 29.4 µM (inactive)

## CN1C(=O)C(=Cc2ccc(Br)cc2)C(=O)N(C)C1=O
A549
  GI50: > 100 µM (inactive)
ACHN
  GI50: > 100 µM (inactive)
BT-549
  GI50: > 100 µM (inactive)
CCRF-CEM
  GI50: > 100 µM (inactive)
HOP-92
  GI50: > 100 µM (inactive)
MOLT-4
  GI50: 14.1 µM (inactive)
NCI-H226
  GI50: > 100 µM (inactive)
NCI-H460
  GI50: > 100 µM (inactive)
NCI/ADR-RES
  GI50: > 100 µM (inactive)
RPMI-8226
  GI50: > 100 µM (inactive)
SF-268
  GI50: > 100 µM (inactive)
SNB-19
  GI50: > 100 µM (inactive)
SW-620
  GI50: > 100 µM (inactive)
UACC-257
  GI50: > 100 µM (inactive)
UACC-62
  GI50: > 100 µM (inactive)
UO-31
  GI50: > 100 µM (inactive)

## CC1(C)[N+]([O-])=[N+]([O-])C1(C)Br (stereo unspecified)
A549
  GI50: > 100 µM (inactive)
ACHN
  GI50: > 100 µM (inactive)
BT-549
  GI50: > 100 µM (inactive)
CCRF-CEM
  GI50: > 100 µM (inactive)
MOLT-4
  GI50: > 100 µM (inactive)
NCI-H226
  GI50: > 100 µM (inactive)
NCI-H460
  GI50: > 100 µM (inactive)
NCI-H522
  GI50: > 100 µM (inactive)
NCI/ADR-RES
  GI50: 65.8 µM (inactive)
SF-268
  GI50: > 100 µM (inactive)
SN12C
  GI50: > 100 µM (inactive)
SNB-19
  GI50: > 100 µM (inactive)
SW-620
  GI50: > 100 µM (inactive)
UACC-257
  GI50: > 100 µM (inactive)
UACC-62
  GI50: > 100 µM (inactive)
UO-31
  GI50: > 100 µM (inactive)

## COc1ccc2nc3cc(Cl)ccc3c(NC(C)CCCN(CCCl)CCCl)c2c1 (stereo unspecified)
A549
  GI50: 0.474 µM (active)
ACHN
  GI50: 0.161 µM (active)
CCRF-CEM
  GI50: 0.0612 µM (active)
HL-60
  GI50: 0.12 µM (active)
HOP-92
  GI50: 0.569 µM (active)
MOLT-4
  GI50: 0.054 µM (active)
NCI-H226
  GI50: 0.387 µM (active)
NCI-H460
  GI50: 0.159 µM (active)
NCI-H522
  GI50: 0.55 µM (active)
RPMI-8226
  GI50: 0.293 µM (active)
SF-268
  GI50: 0.273 µM (active)
SN12C
  GI50: 0.269 µM (active)
SNB-19
  GI50: 0.74 µM (active)
SW-620
  GI50: 0.116 µM (active)
UACC-257
  GI50: 1.43 µM (inactive)
UACC-62
  GI50: 0.29 µM (active)
UO-31
  GI50: 2.04 µM (inactive)
